Like-named read-outs stand apart in the source and are kept apart here.
Key:
[1] = target: recombinant human EGFR exon 19 deletion/C797S double mutant protein (Homo sapiens (Human), UniProt P00533, C797S/DEL746-750); test: Biological Activity Assay C: biochemical assay against EGFR exon 19 deletion/C797S protein (EGFR d19/CS)
Method in brief: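 Compounds were tested as 16-point serial dilutions (final DMSO 2.5%) with a Phosphosens peptide sensor/ATP working solution (40 uM/4 mM). The signal was read kinetically over 90 cycles at 120 s intervals. IC50s came from 4-parameter fits of per-well slopes.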

Ba/F3_EGFR WT cells = test: Biological Activity Assay D: BaF3 cell proliferation assay, EGFR wild-type (BaF3 WT); type: cell-based; details: Ba/F3 EGFR, read-out: BaF3 WT IC50
BaF3_EGFR LR/CS cells = test: Biological Activity Assay D: BaF3 cell proliferation assay, EGFR L858R/C797S mutant (BaF3 LR/CS); type: cell-based; details: Ba/F3 EGFR, read-out: BaF3 LR/CS IC50
BaF3_EGFR d19/CS cells = test: Biological Activity Assay D: BaF3 cell proliferation assay, EGFR exon 19 deletion/C797S (BaF3 d19/CS); type: cell-based; details: Ba/F3 EGFR, read-out: BaF3 d19/CS IC50
[2] = Ba/F3_EGFR WT cells, ~72 hours, CellTiter-Glo
[3] = BaF3_EGFR LR/CS cells, ~72 hours, CellTiter-Glo
[4] = BaF3_EGFR d19/CS cells, ~72 hours, CellTiter-Glo

recombinant human EGFR exon 19 deletion/C797S double mutant protein, sequence (P00533 other isoform, or with tags, fused parts or gaps C797S/del 1-668/del 746-750 limits assumed): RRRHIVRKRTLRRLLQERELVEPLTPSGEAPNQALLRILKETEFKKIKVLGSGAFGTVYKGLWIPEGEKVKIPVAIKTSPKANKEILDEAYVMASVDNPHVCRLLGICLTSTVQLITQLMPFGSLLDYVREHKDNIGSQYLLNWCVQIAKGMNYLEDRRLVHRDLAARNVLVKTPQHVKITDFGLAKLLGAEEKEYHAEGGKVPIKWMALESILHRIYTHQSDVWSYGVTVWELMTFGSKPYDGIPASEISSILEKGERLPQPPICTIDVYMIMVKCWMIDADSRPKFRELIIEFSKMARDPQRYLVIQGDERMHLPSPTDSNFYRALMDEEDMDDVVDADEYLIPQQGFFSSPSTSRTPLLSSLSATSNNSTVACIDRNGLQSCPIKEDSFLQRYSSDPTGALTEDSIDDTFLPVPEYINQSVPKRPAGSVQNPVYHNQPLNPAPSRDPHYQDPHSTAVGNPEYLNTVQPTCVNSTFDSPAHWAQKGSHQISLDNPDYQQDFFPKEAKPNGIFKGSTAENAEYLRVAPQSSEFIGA

Compound | IC50 [1] | IC50 (Ba/F3_EGFR WT cells; [2]) | IC50 (BaF3_EGFR LR/CS cells; [3]) | IC50 (BaF3_EGFR d19/CS cells; [4]) | IC50 (Ba/F3_EGFR WT cells; 72 h) | IC50 (BaF3_EGFR LR/CS cells; 72 h) | IC50 (BaF3_EGFR d19/CS cells; 72 h)
Cc1nn(C)c(C(F)F)c1-c1cc2c(-c3cn(CC(C)(C)O)nc3-c3ccc(F)cc3)ncnc2o1 [Example 280, 1-[4-{6-[5-(difluoromethyl)-1,3-dimethyl-1H-pyrazol-4-yl]furo[2,3-d]pyrimidin-4-yl}-3-(4-fluorophenyl)-1H-pyrazol-1-yl]-2-methylpropan-2-ol] | 0.288 nM | 857 nM | 38.2 nM | 31.7 nM |  |  | 
Fc1ccc(-c2nn(C[C@H]3C[C@H](F)C3)cc2-c2ncnc3oc(-c4ccccc4)cc23)cc1 [Example 124, 4-[1-{[(1r,3r)-3-fluorocyclobutyl]methyl}-3-(4-fluorophenyl)-1H-pyrazol-4-yl]-6-phenylfuro[2,3-d]pyrimidine] | 3.02 nM | 4270 nM | 230 nM | 611 nM |  |  | 
COc1ncccc1-c1cc2c(-c3cn(CCC#N)nc3-c3ccc(F)cc3)ncnc2o1 [Example 285, 3-{3-(4-fluorophenyl)-4-[6-(2-methoxypyridin-3-yl)furo[2,3-d]pyrimidin-4-yl]-1H-pyrazol-1-yl}propanenitrile] | 0.228 nM | 321 nM | 4.86 nM | 3.75 nM |  |  | 
Cc1nn(C)cc1-c1cc2c(-c3cn(C4CS(=O)(=O)C4)nc3-c3ccc(F)cc3)ncnc2o1 [Example 242, 3-{4-[6-(1,3-dimethyl-1H-pyrazol-4-yl)furo[2,3-d]pyrimidin-4-yl]-3-(4-fluorophenyl)-1H-pyrazol-1-yl}-16-thietane-1,1-dione] | 0.18 nM | 533 nM | 8.34 nM | 10.8 nM |  |  | 
Cn1cnc(-c2cc3c(-c4cn(C5CC5(F)F)nc4-c4ccc(F)cc4)ncnc3o2)c1 (single isomer, unassigned) [Example 273] | 0.291 nM | 834 nM | 22.9 nM | 24.8 nM |  |  | 
CNC(=O)c1cncc(-c2cc3c(-c4cn(C5CS(=O)(=O)C5)nc4-c4ccc(F)cc4)ncnc3o2)c1 [Example 239, 5-{4-[1-(1,1-dioxo-1λ6-thietan-3-yl)-3-(4-fluorophenyl)-1H-pyrazol-4-yl]furo[2,3-d]pyrimidin-6-yl}-N-methylpyridine-3-carboxamide] | 1.73 nM | 12400 nM | 1500 nM | 1280 nM |  |  | 
NC(=O)c1ccccc1-c1cc2c(-c3cn(C4CS(=O)(=O)C4)nc3-c3ccc(F)cc3)ncnc2o1 [Example 183, 2-{4-[1-(1,1-dioxo-1λ6-thietan-3-yl)-3-(4-fluorophenyl)-1H-pyrazol-4-yl]furo[2,3-d]pyrimidin-6-yl}benzamide] | 0.14 nM | 5420 nM | 145 nM | 146 nM |  |  | 
COc1ncccc1-c1cc2c(-c3cn(CC(F)(F)CO)nc3-c3ccc(F)cc3)ncnc2o1 [Example 286, 2,2-difluoro-3-{3-(4-fluorophenyl)-4-[6-(2-methoxypyridin-3-yl)furo[2,3-d]pyrimidin-4-yl]-1H-pyrazol-1-yl}propan-1-ol] | 0.203 nM | 1110 nM | 20.1 nM | 15.8 nM |  |  | 
CN1CCC(n2cc(-c3ncnc4oc(-c5ccccc5)cc34)c(-c3ccc(F)cc3)n2)C1=O (stereo not drawn) [Example 148, 3-[3-(4-Fluorophenyl)-4-(6-phenylfuro[2,3-d]pyrimidin-4-yl)-1H-pyrazol-1-yl]-1-methylpyrrolidin-2-one] | 0.61 nM | 1510 nM | 69.8 nM | 92.3 nM |  |  | 
Cn1cnc(-c2cc3c(-c4cn(C5CS(=O)(=O)C5)nc4-c4ccc(F)cc4)ncnc3o2)c1 [Example 200, 3-{3-(4-fluorophenyl)-4-[6-(1-methyl-1H-imidazol-4-yl)furo[2,3-d]pyrimidin-4-yl]-1H-pyrazol-1-yl}-16-thietane-1,1-dione] | 0.13 nM |  |  |  | 412 nM | 5.04 nM | 8.78 nM
C[C@H]1C[C@H](n2cc(-c3ncnc4oc(-c5ccccc5)cc34)c(-c3ccc(F)cc3)n2)CN1S(C)(=O)=O [Example 197, 4-{3-(4-fluorophenyl)-1-[(3S,5S)-1-(methanesulfonyl)-5-methylpyrrolidin-3-yl]-1H-pyrazol-4-yl}-6-phenylfuro[2,3-d]pyrimidine] | 0.45 nM | 139 nM | 12.8 nM | 46.5 nM |  |  | 
C[C@@H]1C[C@@H](n2cc(-c3ncnc4oc(-c5ccccc5)cc34)c(-c3ccc(F)cc3)n2)CN1S(C)(=O)=O [Example 189, 4-{3-(4-fluorophenyl)-1-[(3R,5R)-1-(methanesulfonyl)-5-methylpyrrolidin-3-yl]-1H-pyrazol-4-yl}-6-phenylfuro[2,3-d]pyrimidine] | 0.26 nM | 132 nM | 5.51 nM | 5.86 nM |  |  | 
Oc1ncccc1-c1cc2c(-c3cn([C@H]4C[C@@H](F)C4)nc3-c3ccc(F)cc3)ncnc2o1 [Example 287, 3-(4-{1-[(1s,3s)-3-fluorocyclobutyl]-3-(4-fluorophenyl)-1H-pyrazol-4-yl}furo[2,3-d]pyrimidin-6-yl)pyridin-2-ol] | 0.213 nM | 613 nM | 8.63 nM | 8.85 nM |  |  | 
Cc1nn(C)cc1-c1cc2c(-c3cn([C@H]4C[C@H](C#N)C4)nc3-c3ccc(F)cc3)ncnc2o1 [Example 279, (1r,3r)-3-{4-[6-(1,3-dimethyl-1H-pyrazol-4-yl)furo[2,3-d]pyrimidin-4-yl]-3-(4-fluorophenyl)-1H-pyrazol-1-yl}cyclobutane-1-carbonitrile] | 0.106 nM | 476 nM | 8.89 nM | 5.64 nM |  |  | 
Fc1ccc(-c2nn([C@@H]3CCCCC3(F)F)cc2-c2ncnc3oc(-c4ccccc4)cc23)cc1 (single isomer, unassigned) [Example 230] | 5.1 nM | 2370 nM | 88.5 nM | 287 nM |  |  | 
Cn1cc(-c2cc3c(-c4cn([C@H]5C[C@@H](S(C)(=O)=O)C5)nc4-c4ccc(F)cc4)ncnc3o2)cn1 [Example 256, 4-{3-(4-fluorophenyl)-1-[(1s,3s)-3-(methanesulfonyl)cyclobutyl]-1H-pyrazol-4-yl}-6-(1-methyl-1H-pyrazol-4-yl)furo[2,3-d]pyrimidine] | 0.19 nM | 403 nM | 5.23 nM | 11.2 nM |  |  | 

More lines, main results first:

IC50 [1] | IC50 (Ba/F3_EGFR WT cells; [2]) | IC50 (BaF3_EGFR LR/CS cells; [3]) | IC50 (BaF3_EGFR d19/CS cells; [4]) | Compound | IC50 (Ba/F3_EGFR WT cells; 72 h) | IC50 (BaF3_EGFR LR/CS cells; 72 h) | IC50 (BaF3_EGFR d19/CS cells; 72 h)
3.72 nM | > 20000 nM | 2770 nM | 1160 nM | CC(=O)N1CCN(c2cc3c(-c4cn(C5CS(=O)(=O)C5)nc4-c4ccc(F)cc4)ncnc3o2)CC1 [Example 149, 3-{4-[6-(4-acetylpiperazin-1-yl)furo[2,3-d]pyrimidin-4-yl]-3-(4-fluorophenyl)-1H-pyrazol-1-yl}-1λ6-thietane-1,1-dione] |  |  | 
1.51 nM | 5490 nM | 1160 nM | 860 nM | CC(C)(C)OC(=O)N1CC(C#Cc2cc3c(-c4cn(C5CS(=O)(=O)C5)nc4-c4ccc(F)cc4)ncnc3o2)C1 [Example 132, tert-butyl 3-({4-[1-(1,1-dioxo-1λ6-thietan-3-yl)-3-(4-fluorophenyl)-1H-pyrazol-4-yl]furo[2,3-d]pyrimidin-6-yl}ethynyl)azetidine-1-carboxylate] |  |  | 
0.185 nM | 688 nM | 22.2 nM | 16 nM | Cn1ncc(-c2cc3c(-c4cn(CC(C)(C)O)nc4-c4ccc(F)cc4)ncnc3o2)c1C(F)F [Example 267, 1-[4-{6-[5-(difluoromethyl)-1-methyl-1H-pyrazol-4-yl]furo[2,3-d]pyrimidin-4-yl}-3-(4-fluorophenyl)-1H-pyrazol-1-yl]-2-methylpropan-2-ol] |  |  | 
4.99 nM | 14200 nM | 751 nM | 359 nM | O=C1CCCCN1c1cc2c(-c3cn(C4CS(=O)(=O)C4)nc3-c3ccc(F)cc3)ncnc2o1 [Example 160, 3-{3-(4-fluorophenyl)-4-[6-(2-oxopiperidin-1-yl)furo[2,3-d]pyrimidin-4-yl]-1H-pyrazol-1-yl}-1λ6-thietane-1,1-dione] |  |  | 
0.26 nM | 2340 nM | 30.8 nM | 83.5 nM | CS(=O)(=O)CCCn1cc(-c2ncnc3[nH]c(-c4ccccc4)nc23)c(-c2ccc(F)cc2)n1 [Example 215, 6-{3-(4-fluorophenyl)-1-[3-(methanesulfonyl)propyl]-1H-pyrazol-4-yl}-8-phenyl-9H-purine] |  |  | 
0.14 nM | 1180 nM | 12.6 nM | 29.8 nM | O[C@H]1C[C@H](n2cc(-c3ncnc4oc(-c5ccccc5)cc34)c(-c3ccc(F)cc3)n2)C1 [Example 121, (1r,3r)-3-(3-(4-Fluorophenyl)-4-(6-phenylfuro[2,3-d]pyrimidin-4-yl)-1H-pyrazol-1-yl)cyclobutan-1-ol] |  |  | 
0.1 nM | 498 nM | 4.44 nM | 14.4 nM | Cn1cnc(-c2cc3c(-c4cn([C@H]5C[C@@H](S(C)(=O)=O)C5)nc4-c4ccc(F)cc4)ncnc3o2)c1 [Example 259, 4-{3-(4-fluorophenyl)-1-[(1s,3s)-3-(methanesulfonyl)cyclobutyl]-1H-pyrazol-4-yl}-6-(1-methyl-1H-imidazol-4-yl)furo[2,3-d]pyrimidine] |  |  | 
0.63 nM | 2670 nM | 53.3 nM | 42.3 nM | CC1(C)CC(n2cc(-c3ncnc4oc(-c5ccccc5)cc34)c(-c3ccc(F)cc3)n2)CO1 (racemic) [Example 227, 4-[1-(5,5-dimethyloxolan-3-yl)-3-(4-fluorophenyl)-1H-pyrazol-4-yl]-6-phenylfuro[2,3-d]pyrimidine] |  |  | 
